In ChEMBL document CHEMBL3045574, “Safening Effects of 1, 8-Naphthalic Anhydride in Corn Plants Treated with Bensulfuron-methyl and Imazaquin” (J Pestic Sci, 1997):
Active and inactive are the calls of the source. The calls are words filed in the database; no cut-off is given here.

Columns and labels:
Zea mays [1] = experiment: Increase of acetyl CoA carboxylase activity in Zea mays (maize) at 0.2 % w/w after 15 min relative to control; format: functional
Zea mays [2] = experiment: Increase of acetolactate synthase activity in Zea mays (maize) at 0.2 % w/w after 15 min relative to control; format: functional
Zea mays [3] = experiment: Protection against imazaquin-induced growth inhibition of Zea mays (maize) assessed as safening index at 0.05 to 0.4 % w/w treated 1 to 14 days before imazaquin challenge measured after 3 weeks relative to untreated control; format: functional
Zea mays [4] = experiment: Protection against bensulfuron-methyl-induced growth inhibition of Zea mays (maize) assessed as safening index at 0.05 to 0.4 % w/w treated 1 to 14 days before bensulfuron-methyl challenge measured after 3 weeks relative to untreated control; format: functional
Zea mays [5] = experiment: Effect on pyruvate content in Zea mays (maize) endosperms assessed per gram of fresh weight at 0.2 % w/w after 10 days (reference value: 11.4 umol); format: functional
Zea mays [6] = experiment: Effect on pyruvate content in Zea mays (maize) roots assessed per gram of fresh weight at 0.2 % w/w after 10 days (reference value: 13.3 umol); format: functional
Zea mays [7] = experiment: Effect on pyruvate content in Zea mays (maize) shoot assessed per gram of fresh weight at 0.2 % w/w after 10 days (reference value: 18.4 umol); format: functional
Zea mays [8] = experiment: Decrease of imazaquin-induced increase of pyruvate content in Zea mays (maize) assessed per gram of fresh weight at 0.2 % w/w after 10 days; format: functional, organism-based
Zea mays [9] = experiment: Effect on pyruvate content in Zea mays (maize) embryos assessed per gram of fresh weight at 0.2 % w/w after 10 days (reference value: 8.5 umol); format: functional
Zea mays [10] = experiment: Decrease of bensulfuron-methyl-induced increase of pyruvate content in Zea mays (maize) assessed per gram of fresh weight at 0.2 % w/w after 10 days; format: functional, organism-based
Zea mays [11] = experiment: Increase of acetolactate synthase activity in Zea mays (maize) root; format: functional
Zea mays [12] = experiment: Increase of acetolactate synthase activity in Zea mays (maize) shoot; format: functional
Acetolactate synthase = molecular target: T1, Acetolactate synthase (Zea mays, UniProt Q41768+Q41769); experiment: Inhibition of Zea mays (maize) acetolactate synthase; format: protein assay
T1 sequence (Q41768 whole entry): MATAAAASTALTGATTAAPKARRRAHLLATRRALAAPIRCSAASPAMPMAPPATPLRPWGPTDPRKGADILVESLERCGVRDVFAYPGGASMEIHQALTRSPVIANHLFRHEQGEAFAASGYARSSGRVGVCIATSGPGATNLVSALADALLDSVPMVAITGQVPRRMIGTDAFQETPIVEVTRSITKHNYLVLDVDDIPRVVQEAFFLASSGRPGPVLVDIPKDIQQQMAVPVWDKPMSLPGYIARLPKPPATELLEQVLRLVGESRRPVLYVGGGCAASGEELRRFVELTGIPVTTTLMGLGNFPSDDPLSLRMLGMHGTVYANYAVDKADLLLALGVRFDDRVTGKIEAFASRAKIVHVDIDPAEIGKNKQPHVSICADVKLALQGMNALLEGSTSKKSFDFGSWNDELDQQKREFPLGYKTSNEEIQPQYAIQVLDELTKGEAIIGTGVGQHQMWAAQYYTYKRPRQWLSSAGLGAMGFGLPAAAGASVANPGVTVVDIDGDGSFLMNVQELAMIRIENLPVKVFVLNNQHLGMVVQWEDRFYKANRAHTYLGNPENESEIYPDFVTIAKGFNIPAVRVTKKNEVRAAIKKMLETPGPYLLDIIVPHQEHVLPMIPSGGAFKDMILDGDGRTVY
T1 sequence (Q41769 whole entry): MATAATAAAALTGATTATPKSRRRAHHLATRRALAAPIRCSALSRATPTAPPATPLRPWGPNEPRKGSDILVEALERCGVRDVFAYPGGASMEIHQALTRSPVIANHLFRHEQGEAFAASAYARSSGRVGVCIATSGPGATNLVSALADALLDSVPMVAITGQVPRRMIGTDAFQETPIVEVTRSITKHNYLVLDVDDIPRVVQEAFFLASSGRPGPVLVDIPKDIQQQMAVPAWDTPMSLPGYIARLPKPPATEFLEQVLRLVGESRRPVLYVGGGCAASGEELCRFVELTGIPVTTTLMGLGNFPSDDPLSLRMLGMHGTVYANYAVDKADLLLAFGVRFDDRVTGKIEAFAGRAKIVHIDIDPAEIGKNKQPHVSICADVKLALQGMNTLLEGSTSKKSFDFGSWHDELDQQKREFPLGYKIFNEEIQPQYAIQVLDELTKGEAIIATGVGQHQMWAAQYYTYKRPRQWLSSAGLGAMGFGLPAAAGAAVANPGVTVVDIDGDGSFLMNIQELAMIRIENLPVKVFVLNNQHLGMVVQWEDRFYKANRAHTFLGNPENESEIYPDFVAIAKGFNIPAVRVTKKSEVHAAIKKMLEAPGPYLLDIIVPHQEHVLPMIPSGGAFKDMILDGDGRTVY

Structure (SMILES) | Activity (Zea mays [1]) [%] | Activity (Zea mays [2]) [%] | Ratio (Zea mays [3]) | Ratio (Zea mays [4]) | Activity (Zea mays [5]) [µmol] | Activity (Zea mays [6]) [µmol] | Activity (Zea mays [7]) [µmol] | Activity (Zea mays [8]) | Activity (Zea mays [9]) [µmol] | Activity (Zea mays [10]) | Activity (Zea mays [11]) [%] | Activity (Zea mays [12]) [%] | I50 (Acetolactate synthase) [µM]
O=C1OC(=O)c2cccc3cccc1c23 [1,8-NAPHTHALIC ANHYDRIDE] | 216 | 31.9 | 5.1 | 303 | 11.2 | 13 | 16.2 | Active | 8 | Active | 30 | 24 | 
COC(=O)c1ccccc1CS(=O)(=O)NC(=O)Nc1nc(OC)cc(OC)n1 [BENSULFURON METHYL] |  |  |  |  |  |  |  |  |  |  |  |  | 0.2
CC(C)C1(C)N=C(c2nc3ccccc3cc2C(=O)O)NC1=O (centres undefined) [IMAZAQUIN] |  |  |  |  |  |  |  |  |  |  |  |  | 11.8
